Data published in US9803220B2, “Production of alkenes from 3-hydroxy-1-carboxylic acids via 3-sulfonyloxy-1-carboxylic acids” (Scientist of Fortune S.A., priority 2012, dated 2017).

What was measured:
[1] = Thermal conversion of 3-sulfonyloxybutyrate to propylene, headspace GC-FID; type: physicochemical; details: 50 mM substrate, 50 mM Tris-HCl pH 7.5, 0 to 90 h
Procedure: The thermal conversion assays containing, in a total volume of 0.5 mL, 50 mM 3-sulfonyloxybutyrate and 50 mM Tris-HCl pH 7.5, were incubated in 2 ml sealed glass vials (Interchim) at 37° C. and 65° C. with shaking. Propylene production at different incubation times (from 0 to 90 h) was analyzed as follows. One ml of the gaseous phase was collected and injected into a gas chromatograph Varian 430-GC equipped with FID detector. Nitrogene was used as carrier gas with a flow rate of 1.5 ml/min. Volatile compounds were separated on RT-Alumina Bond/Na2SO4 column (Restek) using an isothermal mode at 130° C. Gaseous product of thermal decomposition of disodium (R,S)-3-sulfonyloxybutyrate was identified by comparison with propylene standard (Sigma, Aldrich). Under these GC conditions, the retention time for propylene was 3.2 min. […] (FIGS. 6 and 7).

[2] = system: sulfotransferase CurM (PKS ST); assay: Sulfotransferase activity assay, sulfurylation of 3-hydroxybutyrate with PAPS, MS detection; type: biochemical, Moorea producens (formerly Lyngbya majuscala) 19L; details: 5 mM (R,S)-3-hydroxybutyrate, 5 mM PAPS, 5 mg/ml enzyme, 1.5 hours at 37° C., pH 7.5
Description: Sequence of sulfotransferase domain of polyketide synthase CurM (PKS ST) inferred from the genome of Moorea producens (formerly Lyngbya majuscala) 19L was generated by oligonucleotide concatenation to fit the codon usage of E. coli. A stretch of 6 histidine codons was inserted after the methionine initiation codon to provide an affinity tag for purification. The gene thus synthesized was cloned in a pET25b(+) expression vector (the vectors were constructed by GENEART AG). After transformation of the E. coli strain BL21 (DE3), the protein was produced according to the procedure described in Example 1 and sulfotransferase activity was assayed under the following conditions
5 mM (R,S)-3-hydroxybutyrate
5 mg/ml purified sulfotransferase (ST) CurM.
Control reaction was performed using the same reaction mixture without addition of the enzyme. The assays were incubated for 1.5 hours at 37° C. An aliquot of 200 μl of each assay was then removed, filtered through a 0.45 μm filter and the filtrated solution was transferred into a clean vial. MS analyses were performed in negative electrospray mode by direct injection of sample using PE SCIEX API 2000 quadrupole instrument. The presence of 3-sulfonyloxybutyrate was evaluated. […] The peak at m/z=182.8 was assigned to mono-deprotonated form of 3-sulfonyloxybutyrate, [M-H]^−. […]

Row | propylene production by thermal conversion ([1]; 37° C.) | propylene production by thermal conversion ([1]; 37° C., listed as sulfonylbutyrate) | propylene production by thermal conversion ([1]; 65° C.) | transfer of the sulfate group from PAPS onto hydroxyl group (formation of 3-sulfonyloxybutyrate) [2] | SMILES
1 | Significant production of propylene | already occurs | Significant production of propylene | – | CC(CC(=O)[O-])OS(=O)(=O)[O-].[Na+].[Na+] (racemic) [disodium (R,S)-3-sulfonyloxybutyrate, Disodium (R,S)-3-sulfonyloxybutyrate]
2 | – | – | – | catalyzes transfer of the sulfate group | CC(O)CC(=O)O (stereo not shown) [3-hydroxybutyrate]
